{"source": "patent US20110092462A1", "about": "“USE OF HIGH-DOSE OXAZAPHOSPHORINE DRUGS FOR TREATING IMMUNE DISORDERS” (The Johns Hopkins University, priority 2005, published 2011)", "key": {"[1]": {"test_system": "patients with refractory autoimmune hemolytic anemia", "from_the_text": "The median hemoglobin at the time of treatment was 6.7 (range; 5-10) g/dl and 8 of the 9 patients were dependent on erythrocyte transfusions."}, "[2]": {"test_system": "patients with moderate to severe systemic lupus erythematosus (SLE)"}, "[3]": {"test_system": "previously untreated SAA patients"}, "SAA patients [4]": {"test_system": "SAA patients", "details": "for mortality within 6 months after treatment / patients achieving remission: 38 newly diagnosed patients", "from_the_text": "Response was defined as ANC >1000/d1 and transfusion independence without growth factor support for >3 months. Relapse was defined as no longer meeting criteria for response. Development of paroxysmal nocturnal hemoglobinuria was monitored by flow cytometry.\nThe median age of the newly diagnosed patients was 40 (range 2-68) years."}, "[5]": {"test_system": "patient with pemphigus vulgaris"}, "[6]": {"test_system": "patients with aggressive MS", "details": "eight patients", "method": "Open-label trial of patients with aggressive MS were given an up-front regimen of 50 mg/kg/d for four consecutive days. Enrolled patients had aggressive MS as defined by 2 or more total gadolinium enhancing lesions on each of two pretreatment MRI scans; at least one clinical exacerbation in the last year despite being on conventional MS therapy; and sustained increase of >1.0 on the EDSS in the preceding year.\nAll patients developed transient severe neutropenia, an expected consequence, followed by immune reconstitution in 10-17 days."}, "SAA patients [7]": {"test_system": "SAA patients", "details": "10 SAA patients"}, "[8]": {"test_system": "HLA-specific antibodies in SAA patients"}, "[9]": {"test_system": "patients with myasthenia gravis", "details": "7 patients refractory to conventional immunosuppressive therapy"}, "[10]": {"test_system": "patient with paraneoplastic pemphigus"}, "[11]": {"test_system": "patients with severe refractory autoimmune disorders"}, "[12]": {"details": "50 mg/kg/d for four consecutive days"}, "[13]": {"details": "after the last dose of cyclophosphamide"}}, "note": "Where two headings read alike, the source gives them in different places.", "data": [{"smiles": "O=P1(N(CCCl)CCCl)NCCCO1", "note": "(centres unmarked) [high-dose cyclophosphamide, cyclophosphamide]", "values": [{"measurement": "complete remission (normal untransfused hemoglobin for age and sex)", "setting": "[1]; 9 patients", "result": 6, "unit": "patients"}, {"measurement": "median time to a neutrophil count of 500 per μL", "setting": "[1]; 9 patients", "result": 16, "unit": "days"}, {"measurement": "median time to platelet transfusion independence", "setting": "[1]; 9 patients", "result": 15, "unit": "days"}, {"measurement": "partial remission (hemoglobin >10.0 g/dl without support of transfusions)", "setting": "[1]; 9 patients", "result": 3, "unit": "patients"}, {"measurement": "responded and became transfusion independent", "setting": "[1]; 9 patients", "result": "All patients"}, {"measurement": "patients able to discontinue steroids", "setting": "[1]; in vivo", "result": "7 of the 9"}, {"measurement": "relapses", "setting": "[1]; median follow-up of 15 (range 4-29) months", "result": "no relapses"}, {"measurement": "deaths or fungal infections", "setting": "[2]; 14 patients", "result": "no deaths or fungal infections"}, {"measurement": "durable complete responses", "setting": "[2]; 14 patients", "result": 5}, {"measurement": "median time to a neutrophil count of 500 μl", "setting": "[2]; after the last dose, range 11 to 22 days, 14 patients", "result": 14, "unit": "days"}, {"measurement": "improvement in Physicians Global Assessment, mean difference", "setting": "[2]; p<0.0001", "result": 1.3}, {"measurement": "improvement in prednisone dosage, mean difference", "setting": "[2]; p=0.01", "result": 12.8, "unit": "mg"}, {"measurement": "improvement in systemic lupus erythematosus disease activity index, mean difference", "setting": "[2]; p=0.042", "result": 3.5}, {"measurement": "median day to last platelet transfusion", "setting": "[2]; range 0 to 23", "result": 16, "unit": "days"}, {"measurement": "median transfusions of packed red blood cells required", "setting": "[2]; range 2 to 5", "result": 2, "unit": "transfusions"}, {"measurement": "median time to a neutrophil count of 500 μL", "setting": "[3]; 19 patients", "result": 49, "unit": "days"}, {"measurement": "probability of achieving treatment-free remission", "setting": "[3]; 19 patients, 95% CI 51-91%", "result": 73, "unit": "%"}, {"measurement": "probability of survival", "setting": "[3]; at 24 months, 19 patients, 95% CI 59-95%", "result": 84, "unit": "%"}, {"measurement": "relapse or secondary clonal disorders", "setting": "[3]; responding patients", "result": "No responding patients"}, {"measurement": "duration of remission after treatment without further immune suppression", "setting": "patients with HAA; 4 patients with hematopoietic responses", "result": "up to 6 years"}, {"measurement": "autoimmune hepatitis (AIH) status", "setting": "patients with HAA; Patient 2", "result": "remains in remission"}, {"measurement": "hematologic response", "setting": "patients with HAA; Patient 5, proceeded to unrelated BMT after 5 months", "result": "no hematopoietic response"}, {"measurement": "hematopoietic recovery", "setting": "patients with HAA; five patients, 50 mg/kg/day IV×4 days plus mesna", "result": "Four patients"}, {"measurement": "durable remissions in hepatitis-associated aplastic anemia", "setting": "patients with HAA; follow-up 1-6 years", "result": "4 of 5"}, {"measurement": "median time to ANC >500/μL", "setting": "patients with HAA; range 44-369", "result": 51, "unit": "days"}, {"measurement": "median time to transfusion independence for platelets", "setting": "patients with HAA; range 48-679", "result": 160, "unit": "days"}, {"measurement": "median time to transfusion independence for erythrocytes", "setting": "patients with HAA; range 57-679", "result": 109, "unit": "days"}, {"measurement": "death from treatment failure", "setting": "patients with HAA; series of 5 patients", "result": "one death"}, {"measurement": "PNH clone", "setting": "SAA patients [4]; 12 patients with a PNH population", "result": "regressing in all 12 patients"}, {"measurement": "durable remission", "setting": "SAA patients [4]; 12 patients with a PNH population 0.5-40% of granulocytes, p=0.039", "result": "all 12"}, {"measurement": "patients in remission", "setting": "SAA patients [4]; 17 patients who failed immunosuppressive therapy", "result": "nine"}, {"measurement": "additional patient died from bacterial sepsis", "setting": "SAA patients [4]; 18 months after treatment", "result": 1, "unit": "patient"}, {"measurement": "mortality within 6 months after treatment", "setting": "SAA patients [4]", "result": 10.5, "unit": "%"}, {"measurement": "patients achieving remission", "setting": "SAA patients [4]; 95% CI 58-85%", "result": 74, "unit": "%"}, {"measurement": "mortality within 6 months after treatment", "setting": "SAA patients [4]; all with vSAA", "result": 4, "unit": "patients"}, {"measurement": "patients achieving remission", "setting": "SAA patients [4]; most complete", "result": 28, "unit": "patients"}, {"measurement": "patients in remission", "setting": "SAA patients [4]; SAA (not very severe) subgroup of 23", "result": 20, "unit": "patients"}, {"measurement": "patients surviving in remission", "setting": "SAA patients [4]; eight patients with a severe infection at beginning of treatment", "result": 5, "unit": "patients"}, {"measurement": "median time to ANC of 500", "setting": "SAA patients [4]; newly diagnosed patients", "result": 50, "unit": "days"}, {"measurement": "median time to last platelet transfusion", "setting": "SAA patients [4]; newly diagnosed patients", "result": 99, "unit": "days"}, {"measurement": "median time to last red cell transfusion", "setting": "SAA patients [4]; newly diagnosed patients", "result": 181, "unit": "days"}, {"measurement": "patients relapsed", "setting": "SAA patients [4]; newly diagnosed series", "result": "Two patients"}, {"measurement": "progression to PNH or MDS", "setting": "SAA patients [4]; newly diagnosed series", "result": "No patient"}, {"measurement": "actuarial survival", "setting": "SAA patients [4]; newly diagnosed, 95% CI 72-95%", "result": 86, "unit": "%"}, {"measurement": "patients surviving", "setting": "SAA patients [4]; newly diagnosed, median follow-up 41 (range 6-111) months", "result": "33/38"}, {"measurement": "patients alive", "setting": "SAA patients [4]; patients who failed immunosuppressive therapy", "result": "Ten of the 17"}, {"measurement": "patients in remission", "setting": "SAA patients [4]; vSAA subgroup of 15", "result": 10, "unit": "patients"}, {"measurement": "pathogenic autoantibodies specific for the disease", "setting": "[5]; after treatment", "result": "undetectable"}, {"measurement": "remission", "setting": "[5]; in vivo", "result": "durable complete remissions"}, {"measurement": "began to recover neutrophils", "setting": "[5]; one patient", "result": "≤ 9", "unit": "days"}, {"measurement": "need for red cell transfusions", "setting": "[5]; one patient", "result": "did not require red cell transfusions"}, {"measurement": "platelet transfusions received", "setting": "[5]; one patient", "result": 2}, {"measurement": "brain atrophy", "setting": "[6]", "result": "slowed in several patients"}, {"measurement": "clinical exacerbation following treatment", "setting": "[6]", "result": "No patient"}, {"measurement": "improvement in the MSFC following treatment", "setting": "[6]", "result": "most patients"}, {"measurement": "reduction in EDSS following treatment", "setting": "[6]", "result": "most patients"}, {"measurement": "reduction or elimination of new and enhancing lesions on the MRI", "setting": "[6]", "result": "All patients"}, {"measurement": "time to immune reconstitution after neutropenia", "setting": "[6]; [12]", "result": "10 to 17", "unit": "days"}, {"measurement": "transient severe neutropenia", "setting": "[6]; [12]", "result": "All patients"}, {"measurement": "unexpected grade 3 or 4 adverse event", "setting": "[6]; [12]", "result": "no patients"}, {"measurement": "complete remission (normocellular bone marrow, hemoglobin >13.0 g/dl, neutrophil count >[…]10^9/L, platelet count greater than 125×10^9/L)", "setting": "SAA patients [7]", "result": "seven of ten"}, {"measurement": "marked reduction in anti-HLA antibody titer", "setting": "[8]; after treatment", "result": "All four responders"}, {"measurement": "complete remission of the SAA", "setting": "[8]; five patients with HLA-specific antibodies", "result": "four of these five"}, {"measurement": "anti-HLA antibody completely eradicated", "setting": "[8]; of four responders", "result": "three"}, {"measurement": "markedly improved, and returned to full activity", "setting": "[9]", "result": "All of these patients"}, {"measurement": "pathogenic autoantibodies specific for the disease", "setting": "[10]; after treatment", "result": "undetectable"}, {"measurement": "remission", "setting": "[10]; in vivo", "result": "durable complete remissions"}, {"measurement": "need for blood products", "setting": "[10]; one patient", "result": "did not require blood products"}, {"measurement": "recovery to a neutrophil count of greater than 500 per μL", "setting": "[10]; one patient", "result": "≤ 15", "unit": "days"}, {"measurement": "median time to a neutrophil count of 500 per μL", "setting": "[11]; [13]", "result": 17, "unit": "days"}, {"measurement": "median time to platelet transfusion independence", "setting": "[11]; [13]", "result": 16, "unit": "days"}, {"measurement": "complete remission", "setting": "[11]; eight patients", "result": "five"}, {"measurement": "marked clinical improvement", "setting": "[11]; eight patients", "result": "Seven patients"}, {"measurement": "partial remission", "setting": "[11]; eight patients", "result": 2}]}]}
